Measured values as given in US11059845B2, “Immune stimulating macrolides” (ISR IMMUNE SYSTEM REGULATION HOLDING AB (PUBL), priority 2017, dated 2021).

Assays:
[1] = tested on: E. coli, S. salivarius, L. casei, B. longum or M. luteus; assay: Direct antibacterial activity, summary over all strains tested; type: cell-based; conditions: against the bacterial strains tested (Table 1)
Procedure: The bioactivity of macrolide compounds against 4 strains of common gut bacteria (Escherichia coli, Streptococcus salivarius subsp. salivarius, Lactobacillus casei and Bifidobacterium longum subsp. infantis) and common mammalian skin isolate Micrococcus luteus, was assessed using the Minimum Inhibitory Concentration (MIC) assay. Bacterial strains were purchased from DSMZ (Brunswick, Germany) except M. luteus which was obtained from NCIMB, and stored in 20% glycerol at −80° C. Stock solutions (100% DMSO) of positive controls (azithromycin and erythromycin), and of test compounds 1 and 2 were diluted in broth to working stock concentrations of 256 μg/ml (final assay testing concentration range 128 μg/ml to 0.00391 μg/ml). Stock solutions of all other compounds were diluted in broth to working stock concentrations of 128 μg/ml (final assay testing concentration range 64 μg/ml to 0.00195 μg/ml). Bacterial strains were cultivated in appropriate broth in an anaerobic chamber at 37° C., except for M. luteus which was incubated aerobically at 37° C. 18 h cultures were diluted in broth to an OD595 of 0.1 and then further diluted 1:10. In 96-well plates, in duplicate, 200 μl working stock of test compound was transferred to well 1 and serially diluted (1:2) in broth. 100 μl bacterial suspension was aliquoted into each well and mixed thoroughly. Appropriate sterility controls were included and plates were incubated in an anaerobic chamber, or aerobically (M. luteus) at 37° C. for 18 h. The MIC was determined to be the concentration of test compound in the first well with no visible growth.

C57bl/6 mice = assay: CD25 expression in blood of mice after i.v. injection; type: in vivo, mouse; conditions: highest dose of 5 mg/kg, 24 h
Procedure: FIG. 14: % CD25 high cells in blood of C57bl/6 mice injected 24 h previously with indicated dose of compound 1. CD25 expression was measured by flow cytometry.
Study 13: Compound 1 was administered i.v. to C57bl/6 mice at 0.165 mg/kg to 5 mg/kg. CD25+ cell abundance was increased in animals receiving the highest dose of 5 mg/kg (FIG. 14), as was body weight in the same group (not shown).

PBMCs = assay: Cytokine/chemokine secretion from PBMCs (cytometric bead assay); type: cell-based, human; conditions: 2 days
Procedure: FIG. 11: Chemokine RANTES secretion (as measured by cytometric bead assay) from PBMC or macrophages stimulated with indicated compound for 48 h.
FIG. 12: IL12p70 secretion (as measured by cytometric bead assay) from PBMC or macrophages stimulated with indicated compound for 48 h.
FIG. 13: IL1b secretion (as measured by cytometric bead assay) from PBMC, macrophages or CD4 T cells stimulated with indicated compound for 48 h.
Study 10: PBMCs and macrophages where exposed to compounds 1 or 2 for 2 days (FIG. 11).
Study 11: PBMCs and macrophages where exposed to compounds 1 and 2 for 2 days.
Study 12: PBMCs, macrophages and CD4+ T cells where exposed to compounds 1 and 2 for 2 days.

[2] = tested on: peripheral blood mononuclear cells (PBMC); assay: Marker expression on PBMC by flow cytometry; type: cell-based, human; conditions: 24 h
Procedure: Human peripheral blood mononuclear cells (PBMCs) were purified from healthy donors with Ficoll-Paque density centrifugation. Cells were cultured in complete RPMI-1640 media (Invitrogen) supplemented with 25 mM HEPES, L-glutamine, Sodium pyruvate (Sigma), 10% fetal bovine serum, 100 μg/mL penicillin and 100 μg/mL streptomycin (Hyclone) for 24-72 hours in 37° C., 5% CO2 and stimulated with and increasing concentrations of compound 1 and 2. Cells were then washed in PBS and stained with monoclonal antibodies specific for cell surface markers (BD Pharmingen) and analysed with flow cytomtetry using a BD FACS Canto II flow cytometer. All samples were tested in duplicates.
(§1) Human peripheral blood mononuclear cells (PBMCs) were purified from healthy donors with Ficoll-Paque density centrifugation. Cells were cultured in complete RPMI-1640 medium (Invitrogen) supplemented with 25 mM HEPES, L-glutamine, Sodium pyruvate (Sigma), 10% fetal bovine serum, 100 μg/mL penicillin and 100 μg/mL streptomycin (Hyclone). Cells were stimulated for 24 h (study 1-4) or 48 h to 1 week (study 5) in 37° C., 5% CO2 with increasing concentrations of compound 1 and 2 in tissue culture plates. The cells were removed from the plate, washed in PBS and analysed for expression of cell specific surface markers and MHC class I with flow cytometry using monoclonal antibodies from BD Pharmingen and a FACS Canto II flow cytometer.

[3] = tested on: CMV specific CD8+ T cells; assay: CMV cultures: phenotype of CMV specific CD8+ T cells; type: cell-based, human; conditions: PBMCs from CMV infected donors, CMV antigen, 6 days
Procedure: Human peripheral blood mononuclear cells (PBMCs) were purified from healthy CMV positive donors with Ficoll-Paque density centrifugation. The PBMC were labeled with 5 μM celltrace violet (Invitrogen) in PBS for 15 minutes and then washed with complete cell culture medium. The labeled PBMC was cultured in the presence of a peptide library spanning the CMV pp65 protein (1 μg peptide/ml, JPT) in AIM-V media (Invitrogen) supplemented with L-glutamine, Sodium pyruvate (Sigma), 10% fetal bovine serum, 100 μg/mL penicillin and 100 μg/mL streptomycin (Hyclone) for 6-8 days in 37° C., 5% CO2. Cell proliferation was assessed with flow cytomtery using a BD FACS Canto II flow cytometer.
Study 7: CMV virus specific T cell proliferation was also affected by compound 1. […] CD127 is crucial for T cell homeostasis, differentiation and function, and reduced expression correlates with disease severity in HIV and other chronic viral diseases (Crawley et al. 2012).

[4] = tested on: Monocytes differentiated into macrophages; assay: CD80 expression on monocytes differentiated into macrophages; type: cell-based, human; conditions: 24 h
Procedure: as §1

With `CC[C@H]1OC(=O)[C@H](C)[C@@H](O[C@H]2C[C@@H](N(C)C)[C@H](O)[C@@H](C)O2)[C@H](C)[C@@H](O)[C@](C)(O)C[C@@H](C)CN(C)[C@H](C)[C@@H](O)[C@]1(C)O` [Compound 1] the antibacterial activity [1] was “no antibacterial activity”, the “CD25+ cell abundance” value (C57bl/6 mice) was “increased” and the “IL-1beta secretion, PBMCs” value (PBMCs) was “slightly”. The “IL-12p70 secretion, PBMCs” value (PBMCs) was “secreted IL-12p70”, the “expression of RANTES in PBMCs” value (PBMCs) was “twofold upregulation” and the “activation marker CD69 on B cells” value ([2]; 1 μM) was “upregulated”. For the same molecule, the “activation marker CD69 on CD4+ T cells” value ([2]; 1 μM) was “upregulated”, the “MHC class I (HLA-ABC) on B-cells” value [2] was “upregulation” and the “MHC class I (HLA-ABC) on T-cells” value [2] was “upregulation”. The “MHC class II (HLA-DR) on monocytes” value [2] was “upregulation”, the “co-stimulatory molecule CD80 on monocytes” value [2] was “upregulation” and the “expression of IL-7 receptor α (CD127) on activated CMV specific CD8+ T cells” value [3] was “increased expression”. The CD80 on macrophages [4] was “upregulated”.
